Structures can show the parent of a compound that is named as a salt. Where two headings read alike, the source gives them in different places. One block for each compound: values may come before it.
Experiments:
[1] = test system: α-synuclein; assay: α-synuclein accumulation in brains of V394L homozygous knock-in mice treated with CBE; assay type: in vivo, mouse; settings: CBE daily intraperitoneally for 30 days
Protocol: Mice homozygous for the point mutations D409H or V394L and expressing a low level of saposin C in a prosaposin knock-out background, were analyzed for accumulation of α-synuclein in the brain. These mice have been reported to accumulate glucosylceramide in the brain. Mice homozygous for the point mutations V394L only, were analyzed for α-synuclein accumulation with and without CBE treatment. […] Mice were administered CBE daily by interperitonally injection for 30 consequitive days ([…] calculated from the total weight of the mouse) and brains were analyzed by immunohistochemistry for accumulation of α-synuclein.
Brain tissue was frozen and fixed for immunohistochemistry with 4% paraformaldehyde and serial sections were co-labelled with anti-human α-synuclein (ab1903; Abcam, Cambridge, Mass.) and rabbit anti-ubiquitin (ab7780; Abcam, Cambridge, Mass.).

[2] = biological target: T1, GCase (Homo sapiens (Human), UniProt P04062); assay: biochemical
[3] = biological target: wild-type GCase (Mus musculus (Mouse), UniProt P17439); assay: In vivo GCase activity in normal C57BL6 mice upon treatment with IFG
Protocol: This Example provides information on the effects of isofagomine, a GCase-specific chaperone on mice. IFG were administered to the mice at 200 mg/kg/day; organs and plasma were collected 4 weeks after initiation of the study. Ten male C57BL6 (25 g) mice per group were used. The drug was be given in the drinking water, therefore water consumption was monitored daily.
In the control group (0 mg/kg/day), the mice were dosed daily in the drinking water (no drug) and divided into two groups. Ten animals were euthanized after 4 weeks of treatment, blood was collected from the descending aorta or vena cava, and tissues were harvested and then necropsied.
In the test group, 10 mice were dosed daily in the drinking water with an administration aim of 200 mg/kg/day.
The blood samples were drawn into lithium heparin and spun for plasma. After bleeding, the spleen, lung, brain and liver were removed and placed into vials. The vials were put into dry ice for rapid freezing. The tissues and plasma were then analyzed for tissue levels of GCase.
Small portions of tissue were removed and added to 500 μl lysis buffer (20 mM sodium citrate and 40 mM disodium hydrogen phosphate, pH 4.0, including 0.1% Triton X-100). Tissues were then homogenized using a microhomogenizer for a brief time, followed by centrifugation at 10,000 rpm for 10 minutes at 4° C. Supernatants were transferred to a new tube and used for the enzyme assay.
The enhancement ratio is equal to the activity with the compound over the activity without the compound.

[4] = biological target: T1, GCase; assay: Phase I multiple-dose study: GCase enzymatic activity in healthy volunteers; assay type: in vivo; settings: dose-related, during treatment period, FIG. 2
Protocol: (§1) In a first-in-human single ascending dose study (1a), doses of 8, 25, 75, 150 (two cohorts), and 300 mg were administered (6 active, 2 placebo in each cohort). In a multiple ascending dose study (1b), doses of 25, 75, and 225 mg were administered daily for seven days (6 active, 2 placebo in each cohort). In both studies, of the eight subjects in each group; six were randomized to receive IFG tartrate, and two subjects received placebo. Subjects were confined from the evening of day-1 until 24 hrs after completion of dosing. In the phase 1a study subjects returned at 48 hrs (PK sampling) and 7 days (safety follow-up) following dosing. In the phase 1b study subjects returned at 48 h (PD sampling), 7 days (PD sampling and safety follow-up), and 14 days (PD sampling) following the last dose
(§2) GCase activity was determined pre-dose on days 1, 3, 5, 7, 9, 14, and 21. Blood samples were cooled in an ice bath and centrifuged under refrigeration as soon as possible. Plasma samples were divided into two aliquots and stored at […] pending assay. At the end of the study, all samples were transferred to MDS Pharma Services Analytical Laboratories (Lincoln) for analysis.

[5] = Phase I studies in healthy volunteers: pharmacokinetics of oral IFG tartrate; assay type: in vivo, human; settings: for half-life: both sexes, human, plasma
Protocol: as §1
Subjects were healthy male and female volunteers between 19 and 55 years of age (inclusive) consisting of members of the community at large.
Blood samples (10 mL each) were collected in blood collection tubes containing EDTA before dosing was determined at regular intervals for the phas 1a during 48 hr following dosing. In the phase 1b study a full IFG tartrate pharmacokinetic profile was determined for 24 hr following the first dose, Cmin values were obtained pre-dose on day 6 and 7, and another full profile was determined for 24 hr following the final, day 7, dose.
as §2

[6] = biological target: T1, GCase; settings: read-out: IC50 for GCase; printed in synthesis headings
[7] = biological target: α-galactosidase A (Homo sapiens (Human), UniProt P06280); settings: healthy volunteers, 50 mg b.i.d. and 150 mg b.i.d.; cited from earlier work
[8] = test system: α-synuclein; assay: α-synuclein immunohistochemistry in brains of transgenic mice over-expressing human α-synuclein; assay type: in vivo, mouse
Protocol: 48 transgenic animals (male and female) were allocated to 6 groups (n=8) at an age of 5 to 6 weeks concerning baseline and 3 to 4 weeks, respectively concerning all other treatment groups at treatment start. One group of transgenic animals served as baseline group (5 weeks old) and was sacrificed untreated on day 0. One group of transgenic animals was treated with vehicle.
Mice (ages 3-4 weeks) were treated once daily (orally) at either 2 mg/kg; 20 mg/kg; or 200 mg/kg of IFG tartrate for 3 months. One group also was treated once every other day at 20 mg/kg.
Animals of the baseline group were sacrificed at an age of 5 weeks. All other animals were sacrificed at the end of the 3 months treatment period and blood for preparation of serum and macrophages as well as lung, brain and CSF were extracted. Therefore, all mice were sedated by standard inhalation anesthesia (Isofluran, Baxter). Cerebrospinal fluid was obtained by blunt dissection and exposure of the foramen magnum. Upon exposure, a Pasteur pipette was inserted to the approximate depth of 0.3-1 mm into the foramen magnum. CSF was collected by suctioning and capillary action until flow fully ceases. CSF was immediately frozen and kept at −80° C.
The brains were removed and hemisected. The right hemispheres of all mice were immersion fixed in freshly produced 4% paraformaldehyde/PBS (pH 7.4) for one hour at room temperature. Thereafter brains were transferred to a 15% sucrose PBS solution for 24 hours to ensure cryoprotection. On the next day brains were frozen in liquid isopentane and stored at −80° C. until used for histological investigations. To determine the effects of the IFG-tartrate treatment from 8 animals per group 10 μm-thick cryosections were cut for determination of alpha-synuclein pathology. All organs and tissues mentioned were sampled and from specific brain regions i.e. hippocampus, midbrain, frontal cortex and striatum of one hemibrain were extracted and frozen. The other brain half was processed for histological evaluation.
For evaluation of the number of α-synuclein positive cells and Lewy body like inclusions an immunohistochemical staining was carried out using the monoclonal human alpha-synuclein specific antibody (Alexis®; Cat #804-258-L001), dilution 1:5, detected with secondary Cy2 antibody (Jackson Immunoresearch®). The number of alpha-synuclein positive cells in five different layers, one slice per layer, was counted for evaluation in the whole hippocampus and cortex separately.
Briefly, samples were washed for 10 min with PBS at room temperature, followed by fixing for 30 min at room temperature with 4% paraformaldehyde, followed by washing 2 times for 5 min each with PBS at room temperature. For Proteinase K-treated sections, sections were incubated in PBS containing 10 μg/ml proteinase-K for 10 minutes at room temperature. Next, samples were incubated for 15 min at room temperature with blocking solution to block endogenous peroxidase, followed by two more 5 min washes with PBS. Samples were then incubated for 60 min at room temperature with a blocking reagent to block non-specific binding, followed by two more 5 min washes with PBS. Samples were then incubated with M.O.M. diluent for 5 min at room temperature, followed by incubation with the primary antibody (dilution 1:5 in M.O.M. diluent) for 60 min with at room temperature.
After an hour, samples were washed 2 times for 5 min with PBS at room temperature, and incubated for another 60 min at room temperature with blocking reagent. Following two washes, samples were incubated with secondary Ab Cy 2-Goat Anti-Rat (Dilution 1:200 in M.O.M.) for 60 minutes at room temperature, in the absence of light. Samples were then washed for 5 min with PBS, for 5 min with sterile, molecular-biology grade water, and covered with polyvinyl alcohol.
For evaluation of the α-synuclein immunoreactivity, specialized image analysis software (Image Pro Plus, version 4.5.1.29) was used. […]

[9] = Phase I studies in healthy volunteers: safety and tolerability; assay type: in vivo, human; settings: both Phase I studies
Protocol: as §1, with “last dose […]” for “last dose”
Safety was determined by evaluating vital signs, laboratory parameters (serum chemistry, hematology, and urinalysis), physical examination and by recording adverse events during the Treatment Period.
Safety data including laboratory evaluations, physical exams, adverse events, ECG monitoring and vital signs assessments were summarized by treatment group and point of time of collection. Descriptive statistics (arithmetic mean, standard deviation, median, minimum and maximum) were calculated for quantitative safety data as well as for the difference to baseline. […]

[10] = normal C57BL6 mice, 200 mg/kg/day in drinking water, FIG. 1

wild-type GCase, sequence (P17439 20-515): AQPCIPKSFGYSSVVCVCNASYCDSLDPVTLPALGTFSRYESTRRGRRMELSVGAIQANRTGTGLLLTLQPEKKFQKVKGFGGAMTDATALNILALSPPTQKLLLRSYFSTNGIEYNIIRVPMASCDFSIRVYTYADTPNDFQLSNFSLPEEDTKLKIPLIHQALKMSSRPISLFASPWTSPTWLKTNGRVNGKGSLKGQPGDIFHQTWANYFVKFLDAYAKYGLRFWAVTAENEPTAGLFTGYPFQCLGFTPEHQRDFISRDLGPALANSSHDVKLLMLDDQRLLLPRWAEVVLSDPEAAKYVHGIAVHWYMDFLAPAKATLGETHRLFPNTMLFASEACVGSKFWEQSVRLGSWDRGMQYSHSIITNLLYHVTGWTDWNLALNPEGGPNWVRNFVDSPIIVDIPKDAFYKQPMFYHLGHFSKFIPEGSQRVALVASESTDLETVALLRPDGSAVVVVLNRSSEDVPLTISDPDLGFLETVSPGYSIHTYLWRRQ
T1 sequence (P04062 40-536): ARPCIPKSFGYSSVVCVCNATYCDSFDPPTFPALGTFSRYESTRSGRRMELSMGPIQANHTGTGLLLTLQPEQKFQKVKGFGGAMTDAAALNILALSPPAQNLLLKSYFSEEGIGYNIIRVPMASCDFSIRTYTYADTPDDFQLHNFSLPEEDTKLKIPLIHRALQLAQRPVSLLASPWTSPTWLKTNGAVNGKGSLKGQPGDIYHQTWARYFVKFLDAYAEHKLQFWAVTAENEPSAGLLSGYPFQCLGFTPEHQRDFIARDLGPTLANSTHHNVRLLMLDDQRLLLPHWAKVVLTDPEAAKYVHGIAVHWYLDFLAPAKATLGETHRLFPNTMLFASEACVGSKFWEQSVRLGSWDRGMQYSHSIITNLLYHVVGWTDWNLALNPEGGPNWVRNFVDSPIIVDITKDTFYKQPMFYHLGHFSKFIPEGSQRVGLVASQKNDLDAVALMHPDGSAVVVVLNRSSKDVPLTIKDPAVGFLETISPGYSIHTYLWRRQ
α-galactosidase A, sequence (P06280 32-429): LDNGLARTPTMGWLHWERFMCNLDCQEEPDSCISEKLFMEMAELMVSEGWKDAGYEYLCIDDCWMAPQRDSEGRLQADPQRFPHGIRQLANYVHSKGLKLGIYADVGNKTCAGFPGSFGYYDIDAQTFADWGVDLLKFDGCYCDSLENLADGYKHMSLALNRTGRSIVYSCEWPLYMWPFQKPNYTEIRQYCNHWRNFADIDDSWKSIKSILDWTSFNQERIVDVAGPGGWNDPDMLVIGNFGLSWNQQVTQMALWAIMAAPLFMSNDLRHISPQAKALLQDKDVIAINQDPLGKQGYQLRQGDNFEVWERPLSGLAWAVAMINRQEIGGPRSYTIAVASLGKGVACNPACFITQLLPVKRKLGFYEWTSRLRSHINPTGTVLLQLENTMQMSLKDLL

Structure (SMILES): O[C@H]1[C@H](O)[C@@H](O)[C@@H]2O[C@@H]2[C@@H]1O [CBE, conduritol-β-epoxide]
α-synuclein in the brain [1]: resulted in accumulation of α-synuclein in the brain

IC50 [2]: ~0.07 nM
Structure (SMILES): CCCCCCCCc1cn2c(n1)[C@H](O)[C@@H](O)[C@H](O)[C@H]2CO [(5R,6R,7S,8S)-5-Hydroxymethyl-2-n-octyl-5,6,7,8-tetrahydroimidazo[1,2-a]pyridine-6,7,8-triol]

GCase levels in brain [3, 10]: increased
GCase levels in liver [3, 10]: increased
GCase levels in lung [3, 10]: increased
GCase levels in spleen [3, 10]: increased
wild-type GCase activity, dose response ([3]; separate experiment, mice treated with 0, 1, 10, or 100 mg/kg/day): linear dose-response increase
increase in GCase enzyme levels above baseline [4]: approximately 3.5 fold
half-life ([5]; oral, repeated doses of 25 to 225 mg, read-out: mean half-lives): 5.14 to 19.9 h
accumulation based on AUC and Cmax comparisons on Day 1 and Day 7 ([5]; repeated doses of 25 to 225 mg): Minimal accumulation
Structure (SMILES): OC[C@H]1CNC[C@@H](O)[C@@H]1O [IFG, (3R,4R,5R)-5-(hydroxymethyl)-3,4-piperidinediol]

Structure (SMILES): CC(C)(C)C#Cc1cn2c(n1)[C@H](OCc1ccccc1)[C@@H](OCc1ccccc1)[C@H](OCc1ccccc1)[C@H]2COCc1ccccc1 [(5R,6R,7S,8S)-6,7,8-Tris(benzyloxy)-5-[(benzyloxy)methyl]-2-(3,3-dimethylbyt-1-ynyl)-5,6,7,8-tetrahydroimidazo[1,2-a]pyridine]
IC50 [6]: ~1.1 nM

Structure (SMILES): OC[C@H]1NC[C@H](O)[C@@H](O)[C@H]1O [DGJ, 1-deoxygalactonojirimycin]
α-galactosidase A activity in white blood cells [7]: dose-dependent increase

half-life ([5]; single-dose study, oral, read-out: plasma elimination half-life (converted)): 14 h
systemic exposure via the oral route ([5]; healthy volunteers, oral): good systemic exposure
time at which mean plasma levels peaked ([5]; single-dose study, oral): 3.4 h
Structure (SMILES): OC[C@H]1CNC[C@@H](O)[C@@H]1O [isofagomine tartrate]
α-synuclein positive cell load versus baseline, both regions averaged ([8]; 2 mg/kg daily for 3 months, p>0.05 versus baseline): prevented mice from the age-accompanied increase of pathology
number of α-synuclein immunoreactive cells in the hippocampus versus vehicle-treated controls ([8]; 2 mg/kg once daily orally for 3 months, p<0.05, FIG. 6B): reduced the number of immunoreactive cells in the hippocampus significantly
α-synuclein pathology versus controls at 20 mg dose ([8]; 20 mg/kg daily or every other day for 3 months): not effective versus controls
accumulation of Proteinase K resistant α-synuclein aggregates ([8]; 20 mg/kg, 3 months, single responding animal, FIG. 5): prevents the accumulation of these α-synuclein aggregates
qualitative α-synuclein staining in cortex and hippocampus ([8]; 2 and 20 mg/kg b.w. daily, some of the treated animals, FIGS. 3 and 4): strongly decreased background and decreased α-synuclein positive cell numbers
α-synuclein pathology in the cortex ([8]; oral treatment for 3 months, FIG. 6A): did not reach significance level
serious adverse events [9]: No serious adverse events occurred
tolerability ([9]; all doses): generally well tolerated
pharmacokinetic behavior and accumulation after 7 days of oral administration ([5]; multiple-dose study, 25, 75, 225 mg daily for seven days): linear with dose, with no unexpected accumulation
plasma AUC and Cmax versus dose ([5]; single-dose study, 8 to 300 mg oral): linearly correlated with administered dose

IC50 [2]: ~0.03 nM
Structure (SMILES): CC(C)(C)CCc1cn2c(n1)[C@H](O)[C@@H](O)[C@H](O)[C@H]2CO [(5R,6R,7S,8S)-5-Hydroxymethyl-2-(3,3-dimethylbutyl)-5,6,7,8-tetrahydro-imidazo[1,2-a]pyridine-6,7,8-triol]

Source: patent US9119845B2, “Method for the treatment of neurological disorders by enhancing the activity of beta-glucocerebrosidase” (Amicus Therapeautics, Inc., priority 2006, dated 2015)
